# No end group written: not given here.
# Assays:
# HUVECs [1] = experiment: Blood vessel (tube) formation assay on Matrigel; format: cell-based, human; conditions: 4 hours, vs. control
# Description: HUVECs (20,000 cells/well) were seed on a layer of previously polymerized Matrigel and treated with or without the first peptide and the second peptide. The Matrigel culture was incubated at 37° C. After 4 hours, changes in cell morphology were captured using a phase-contrast microscope (×40). Each sample was assayed in duplicate, and independent experiments were repeated three times. *P<0.05, **P,0.01, ***P<0.001 (vs. control).
# HUVECs (20,000 cells/well) were seeded on a layer of previously polymerized Matrigel, treated with the visfatin-derived peptides, and then incubated in a 5% CO2 incubator at 37° C. for 4 hours. Then, changes in the cell morphology were observed and photographed using a phase-contrast microscope at 40× magnification. Each sample was assayed in duplicate, and independent experiments were repeated three times. Angiogenesis was analyzed with ImageJ software using an angiogenesis analyzer (Bethesda, MD, USA).
# HUVECs [2] = experiment: MTT cytotoxicity assay; format: cell-based, human; conditions: 0.1 μM, 0.5 μM, 1.0 μM and 2.0 μM, incubated overnight
# Description: HUVECS (PromoCell, Heidelberg, Germany) were cultured in endothelial basal medium 2 (EBM) supplemented with Supplement Mix (PromoCell) containing 2% fetal bovine serum (FBS). The Supplement Mix consisted of 5 ng/mL epidermal growth factor (EGF), 10 ng/ml basic fibroblast growth factor (bFGF), 20 ng/mL insulin-like growth factor (IGF), 0.5 ng/mL VEGF, 1 ug/mL ascorbic acid, 22.5 ug/mL heparin, and 0.2 ug/mL hydrocortisone. In some experiments, cells were cultured in EBM medium supplemented with Supplement Mix, and cells between passages 2 and 7 were used in all experiments. Cells were cultured for 24 hours in a 5% CO2 incubator at a 37° C.
# HUVECs were seeded at a density of 10,000 cells in 96-well plates (SPL, Korea) and incubated overnight with EBM-2 medium containing visfatin (1,000 ng/ml) and each of the peptides with the highest affinity, obtained from docking simulation, in a 5% CO2 incubator at 37° C. MIT reagent (Sigma-Aldrich) was added to each well to a final concentration of 0.5 mg/ml. After 4 hours, the medium was removed, the formazan crystals formed in the cells were dissolved in dimethyl sulfoxide (DMSO), and the absorbance of the formazan solution was measured at a wavelength of 540 nm using a Synergy HTX Multi-Mode Reader (BIO-TEK, Vermont, USA). Each sample was assayed in triplicate. […]
Substance,number of master junctions (tube formation) (HUVECs [1]; second peptide except at the 2.0 μM concentration),number of meshes (tube formation) (HUVECs [1]; positive controls),cell viability of HUVECs (cytotoxicity) (HUVECs [2])
basic fibroblast growth factor [bFGF],significantly increased,not significantly changed,–
"LEYKLHDFGY [Peptide 1, LEYKLHDFGY]",–,–,did not affect the viability of the cells
"EYKLHDFGYRGV [Peptide 2, EYKLHDFGYRGV]",–,–,did not affect the viability of the cells
